*1 amine or outer side, *2 acyl side, *3 side chain or, on linkers, in order; H or OH if unused. Where a SMILES comes first, the peptide text is derived from it. Side-chain parts run from the residue outwards. [ ]: non-standard residue; d: D form. The star is where a group is joined. DOTA = O=C(O)CN1CCN(CC(=O)O)CCN(CC(=O)*)CCN(CC(=O)O)CC1; X1 = O=C([C@@H](Cc1ccc(OS(=O)(=O)F)cc1)N[*:1])[*:2]; 2Nal = N[C@@H](Cc1ccc2ccccc2c1)C(=O)O; dNMeOrn = CN[C@H](CCCN)C(=O)O; 4Amb = NCc1ccc(C(=O)O)cc1
Legend:
HT-1080-FAP tumor [1] = experiment: PET/CT imaging in HT-1080-FAP tumor-bearing mouse model; format: in vivo; details: ^68Ga label, 18.5 MBq via tail vein, p<0.005
Protocol: Mouse model: Nu/Nu mice (SPF grade) were purchased from Beijing Charles River Laboratories (China) and injected subcutaneously with HT-1080-FAP cells to construct a tumor model with high FAP expression.
(§1) All PET/CT scans were carried out on Mediso nanoScan® PET 122S small animal PET/CT.
After a certain number of HT-1080-FAP tumor mice were taken and injected via the tail vein with 7.4-18.5 MBq of ^68Ga/^86Y-FAPI-04 (control) and ^68Ga/^86Y-FAPI-CB series molecules at specified time points (Note: the injection of the control and investigation molecules was separated apart by at least five half-lives of the nuclide to ensure that the radioactivity of the previous probe had almost completely decayed and was essentially completely metabolized), imaging was carried out at specified time points. In some examples, the mice were anesthetized and then sacrificed by neck breaking at a certain time point. Organs were dissected and taken for radioactivity measurement.
A ^68Ge-^68Ga generator was eluted with 5 mL of 0.6 M high-purity hydrochloric acid to obtain a Ga-68 hydrochloric acid solution. 1 mL of the Ga-68 solution after elution was taken, and 100 μL of 3 M sodium hydroxide and 130 μL of 3M sodium acetate were added to adjust the acidity to a final pH of 4.0. 12 μg of FAPI-CB-00 compound was added, and the reaction mixture was heated to 70° C. and maintained for 20 min. […]

FAP, DPP-4 and PREP = experiment: Binding selectivity to homologous proteins (competitive inhibition of enzyme substrate, IC50); format: biochemical; details: from IC50 values, pNA release
Protocol: Taking FAP target as an example, homologous proteins thereof include, but are not limited to, DPP-4 and PREP. The structural similarity thereof may lead to a decreased binding selectivity of the modified precursor molecules for the homologous proteins, resulting in an increased uptake in non-target organs.
The binding selectivity for homologous proteins was determined by a competitive inhibition experiment on the substrate of the enzymes, and the binding/inhibition selectivity thereof is indirectly evaluated by the median inhibitory concentration (IC50) values obtained.
By reference to the method described in Extended Structure-Activity Relationship and Pharmacokinetic Investigation of (4-Quinolinoyl)glycyl-2-cyanopyrrolidine Inhibitors of Fibroblast Activation Protein (FAP). Journal of Medicinal Chemistry 57, 3053-3074 (2014), published by Jansen et al., the initial rate of p-nitroaniline (pNA) released from the substrate (absorption at 405 nm) was measured by using a microplate reader (PerkinElmer, Victor™ X5) at 37° C. in a final volume of 200 μL to determine the kinetic properties of the enzyme activity. […]
The determination method for IC50 on FAP is as follows: the substrate Z-Gly-Pro-p-nitroanilide (50 μM, Cat #G-58468, HEOWNS) was used to measure FAP activity at pH 7.4. […] The mixture was then incubated at 37° C. for 6 hours, and the release of pNA was then measured. […]

HT-1080-FAP tumor [2] = experiment: ^177Lu radionuclide therapy experiment in tumor mouse model; format: in vivo; details: ^177Lu-labeled, treatment on day 0 and day 4, same or higher dose; vs normal saline or FAPI-04 control group
Protocol: (§2) When the average tumor size reached about 100 mm^3, HT-1080-FAP tumor mice in the same batch were randomly divided into five groups, with n=7 or 8 in each group. Two rounds of treatment were then carried out on day 0 and day 4. […] The tumor size and weight of the mice were monitored every 2 or 3 days.

HT-1080-FAP tumor [3] = experiment: ^225Ac radionuclide therapy experiment in tumor mouse model; format: in vivo; details: ^225Ac-labeled, treatment on day 0 and day 4, same or higher dose; vs normal saline or FAPI-04 control group
Protocol: as §2

AR42J tumor = experiment: PET/CT imaging in tumor mouse model with high SSTR2 expression; format: in vivo; details: 7.4-18.5 MBq i.v., 2 hours, p<0.05
Protocol: as §1
(§3) A certain number (n=4) of AR42J tumor mice (for the construction method, see the method in Combination radionuclide therapy using ^177Lu-and ^90Y-labeled somatostatin analogs, published by Marion de Jong et al.) were taken and intravenously injected at specified time points with 7.4-18.5 MBq of ^68Ga-DOTATATE (as a control, the labeled precursor is readily commercially available, and the structure is specifically disclosed) and ^68Ga-SSTR2-CB-02 molecules (Note: the injection of the control and investigation molecules was separated apart by at least 12 hours until the previous ^68Ga molecule essentially completely decayed and was essentially completely metabolized). Imaging was carried at the time point of 2 hours, and the SUVmax value in tumor was obtained by a software.

Daudi tumor = experiment: PET/CT imaging in tumor mouse model with high CXCR4 expression; format: in vivo; details: 7.4-18.5 MBq i.v., 2 hours, p<0.05
Protocol: as §1
as §3, with “Daudi” for “AR42J”, “PET Imaging of CXCR4 Receptors in Cancer by a New Optimized Ligand,” for “Combination radionuclide therapy using ^177Lu-and ^90Y-labeled somatostatin analogs,”, “Oliver Demmer” for “Marion de Jong”, “^68Ga-pentixafor” for “^68Ga-DOTATATE”, “^68Ga-CXCR4-CB-03” for “^68Ga-SSTR2-CB-02”

N#C[C@@H]1CC(F)(F)CN1C(=O)CNC(=O)c1ccnc2ccc(OCCCN3CCN(C(=O)[C@H](CCCCNC(=O)c4cccc(OS(=O)(=O)F)c4)NC(=O)CN4CCN(CC(=O)O)CCN(CC(=O)O)CCN(CC(=O)O)CC4)CC3)cc12 [FAPI-CB-02]
improvement of maximum standard tumor uptake value (SUVmax) compared with FAPI-04 (HT-1080-FAP tumor [1]): ~4 times
selectivity to FAP protein over homologous proteins DPP-4 and PREP (FAP, DPP-4 and PREP): high selectivity
tumor inhibition effect (HT-1080-FAP tumor [2]): significantly better tumor inhibition effect
tumor inhibition effect (HT-1080-FAP tumor [3]): significantly better tumor inhibition effect

C[C@@H](O)[C@H](NC(=O)[C@@H]1CSSC[C@H](NC(=O)[C@@H](Cc2ccccc2)NC(=O)CN2CCN(CC(=O)O)CCN(CC(=O)O)CCN(CC(=O)O)CC2)C(=O)N[C@@H](Cc2ccc(OS(=O)(=O)F)cc2)C(=O)N[C@H](Cc2c[nH]c3ccccc23)C(=O)N[C@@H](CCCCN)C(=O)N[C@@H]([C@@H](C)O)C(=O)N1)C(=O)O [^68Ga-SSTR2-CB-02, metal not drawn]
drug tumor uptake (SUVmax) compared with ^68Ga-DOTATATE (AR42J tumor): significantly higher

CN1C(=O)[C@@H](Cc2ccc(OS(=O)(=O)F)cc2)NC(=O)CNC(=O)[C@H](Cc2ccc3ccccc3c2)NC(=O)[C@H](CCCNC(=N)N)NC(=O)[C@H]1CCCNC(=O)c1ccc(CNC(=O)CN2CCN(CC(=O)O)CCN(CC(=O)O)CCN(CC(=O)O)CC2)cc1 [^68Ga-CXCR4-CB-03, metal not drawn] (cyclo([2Nal]G[X1][dNMeOrn]([4Amb-DOTA])R))
drug tumor uptake (SUVmax) compared with ^68Ga-pentixafor (Daudi tumor): significantly higher
